Experimental findings from patent US20250276964A1 (Novartis AG, priority 2021, published 2025) are described below.

One experiment addresses T1, WIZ (Homo sapiens, UniProt O95785+Q96SW2).
T1 construct: expressed in transfected cells
The experiment can be described thus: Quantification of WIZ protein levels in HiBit tag fusion protein assay (WIZ HiBit assay in 293T cells). In kind it is cell-based. To be noted: for Dmax at 25 µM / remaining activity at 25 µM: HEK-293T; for Dmax at 25 µM: 100 minus Amax at 25 uM, read-out: % degradation of WIZ (100-Amax); for remaining activity at 25 µM: DMSO-normalized, curve-fitted percentage of WIZ-HiBit remaining at 25 uM, read-out: WIZ Amax; for DC50: WIZ HiBit assay in 293T cells, 10-point, 5-fold dilution, highest concentration 25 μM, about 18 hours, read-out: WIZ AC50. In short, it runs like this:
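293T cells stably carrying single-copy HiBit-WIZ (HSVTK promoter) treated ~18 h at 37 °C with 10-point, 5-fold dilutions, top 25 μM. Lytic HiBit luminescence read; Amax is DMSO-normalised, curve-fitted % WIZ-HiBit remaining at 25 uM.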

Another experiment deals with Fetal Hemoglobin (HbF). Put plainly: Small molecule HbF induction assay (erythroid differentiated mPB CD34+ cells, flow cytometry). The format is cell-based, human. To be noted: for EC50: Homo sapiens, mPB CD34+ cells expanded 6 days, erythroid differentiated with compound 7 days, 7-point, 1:3 dilution from 30 uM; for HbF Amax: highest percentage of cells staining positive for HbF (% HbF+ cells) in the fitted dose-response curve, DMSO baseline approximately 30-40%. How it is done: Cryopreserved primary human CD34^+ hematopoietic stem and progenitor cells were obtained from AllCells, LLC. The CD34^+ cells were isolated from the peripheral blood of healthy donors after mobilization by administration of granulocyte colony-stimulating factor. Cells were differentiated ex vivo toward the erythroid lineage using a 2-phase culture method. In the first phase, cells were cultured in StemSpan™ Serum-Free Expansion Media (SFEM) ([…] Technologies Inc.) supplemented with rhSCF (50 ng/mL, Peprotech®, Inc.), rhIL-6 (50 ng/mL, Peprotech®, Inc.), rhIL-3 (50 ng/mL, Peprotech®, Inc.), and rhFlt3L (50 ng/mL, Peprotech®, Inc.), and 1× antibiotic-antimycotic (Life Technologies, Thermo Fisher Scientific) for 6 days at 37° C. with 5% CO2. During the second phase, cells were cultured in erythroid differentiation media at 5,000 cells/mL in the presence of compound for 7 days at 37° C. with 5% CO2. Erythroid Differentiation Media is comprised of IMDM (Life Technologies) supplemented with insulin (10 μg/mL, Sigma Aldrich), heparin (2 U/mL Sigma Aldrich), holo-transferrin (330 μg/mL, Sigma Aldrich), human serum AB (5%, Sigma Aldrich), hydrocortisone (1 μM, […] Technologies), rhSCF (100 ng/mL, Peprotech®, Inc.), rhIL-3 (5 ng/mL, Peprotech®, Inc.), rhEPO (3 U/mL, Peprotech®, Inc.), and 1× antibiotic-antimycotic. All compounds were dissolved and diluted into dimethylsulfoxide (DMSO) and were added to culture media for a final concentration of 0.3% DMSO for testing in a 7-point, 1:3 dilution series starting at 30 uM.
For viability analysis, samples were washed and resuspended in phosphate-buffered saline (PBS) and stained with LIVE/DEAD™ Fixable Violet Dead Cell Stain Kit (Life Technologies, L34963) for 20 minutes. Cells were then washed again with PBS and resuspended in PBS supplemented with 2% fetal bovine serum (FBS), and 2 mM EDTA to prepare for cell surface marker analysis. Cells were labeled with allophycocyanin-conjugated CD235a (1:100, BD Biosciences, 551336) and Brilliant Violet-conjugated CD71 (1:100, BD Biosciences, 563767) antibodies for 20 minutes. For analysis of cytoplasmic Fetal Hemoglobin (HbF), cells were fixed and permeabilized using the Fixation (BioLegend®, 420801) and Permeabilization Wash (BioLegend®, 421002) Buffers according to the manufacturer's protocol. During the permeabilization step, cells were stained with phycoerythrin-conjugated or FITC-conjugated HbF-specific antibody (1:10-1:25, Invitrogen™, MHFH04-4) for 30 minutes. Stained cells were washed with phosphate-buffered saline before analysis on the FACSCanto™ I1 flow cytometer or LSRFortessa™ (BD Biosciences). […]
mPB CD34+ cells were expanded for 6 days, then erythroid differentiated in the presence of compound for 7 days. Cells were fixed, stained and analyzed by flow cytometry. […]
On the technique in general: In flow cytometry, cells or beads pass a laser one at a time.

T1 sequence (O95785 whole entry): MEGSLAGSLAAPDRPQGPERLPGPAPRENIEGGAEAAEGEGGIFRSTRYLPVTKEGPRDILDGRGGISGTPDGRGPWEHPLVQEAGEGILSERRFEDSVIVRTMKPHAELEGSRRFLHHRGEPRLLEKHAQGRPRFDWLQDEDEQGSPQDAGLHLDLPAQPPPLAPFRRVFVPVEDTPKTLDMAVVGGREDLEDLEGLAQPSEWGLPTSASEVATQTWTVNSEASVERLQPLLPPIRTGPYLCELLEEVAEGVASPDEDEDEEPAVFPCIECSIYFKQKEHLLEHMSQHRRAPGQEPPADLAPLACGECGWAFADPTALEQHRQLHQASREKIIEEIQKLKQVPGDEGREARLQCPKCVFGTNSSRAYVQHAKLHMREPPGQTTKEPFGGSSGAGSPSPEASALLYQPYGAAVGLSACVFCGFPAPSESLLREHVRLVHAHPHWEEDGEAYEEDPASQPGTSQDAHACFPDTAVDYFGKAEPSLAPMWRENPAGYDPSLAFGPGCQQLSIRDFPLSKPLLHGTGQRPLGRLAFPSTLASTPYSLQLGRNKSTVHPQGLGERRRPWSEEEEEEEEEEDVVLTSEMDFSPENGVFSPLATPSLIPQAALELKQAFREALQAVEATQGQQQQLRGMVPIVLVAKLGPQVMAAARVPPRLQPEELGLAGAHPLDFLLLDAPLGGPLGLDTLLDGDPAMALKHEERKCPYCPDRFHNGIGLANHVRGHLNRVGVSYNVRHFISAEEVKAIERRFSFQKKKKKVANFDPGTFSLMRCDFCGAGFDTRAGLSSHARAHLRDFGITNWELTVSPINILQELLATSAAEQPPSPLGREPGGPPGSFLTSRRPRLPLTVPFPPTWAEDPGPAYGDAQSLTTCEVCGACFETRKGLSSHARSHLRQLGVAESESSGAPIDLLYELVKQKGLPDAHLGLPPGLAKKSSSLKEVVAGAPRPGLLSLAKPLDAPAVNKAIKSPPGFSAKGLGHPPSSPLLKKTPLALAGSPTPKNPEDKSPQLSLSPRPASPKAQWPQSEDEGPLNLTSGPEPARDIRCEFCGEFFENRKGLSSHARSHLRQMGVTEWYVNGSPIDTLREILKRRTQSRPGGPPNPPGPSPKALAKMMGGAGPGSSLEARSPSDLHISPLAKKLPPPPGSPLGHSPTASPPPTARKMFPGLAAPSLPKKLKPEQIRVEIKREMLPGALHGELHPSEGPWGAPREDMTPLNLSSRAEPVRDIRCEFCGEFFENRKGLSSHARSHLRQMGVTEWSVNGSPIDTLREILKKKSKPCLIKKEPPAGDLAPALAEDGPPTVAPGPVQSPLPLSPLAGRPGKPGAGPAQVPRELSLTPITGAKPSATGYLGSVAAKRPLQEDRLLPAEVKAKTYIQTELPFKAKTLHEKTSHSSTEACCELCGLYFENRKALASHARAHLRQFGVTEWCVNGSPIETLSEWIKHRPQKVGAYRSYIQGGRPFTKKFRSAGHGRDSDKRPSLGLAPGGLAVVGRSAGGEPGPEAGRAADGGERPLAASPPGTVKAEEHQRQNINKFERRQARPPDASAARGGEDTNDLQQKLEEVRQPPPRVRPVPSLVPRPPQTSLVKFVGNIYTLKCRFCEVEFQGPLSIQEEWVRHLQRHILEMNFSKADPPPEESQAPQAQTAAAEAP
T1 sequence (Q96SW2 whole entry): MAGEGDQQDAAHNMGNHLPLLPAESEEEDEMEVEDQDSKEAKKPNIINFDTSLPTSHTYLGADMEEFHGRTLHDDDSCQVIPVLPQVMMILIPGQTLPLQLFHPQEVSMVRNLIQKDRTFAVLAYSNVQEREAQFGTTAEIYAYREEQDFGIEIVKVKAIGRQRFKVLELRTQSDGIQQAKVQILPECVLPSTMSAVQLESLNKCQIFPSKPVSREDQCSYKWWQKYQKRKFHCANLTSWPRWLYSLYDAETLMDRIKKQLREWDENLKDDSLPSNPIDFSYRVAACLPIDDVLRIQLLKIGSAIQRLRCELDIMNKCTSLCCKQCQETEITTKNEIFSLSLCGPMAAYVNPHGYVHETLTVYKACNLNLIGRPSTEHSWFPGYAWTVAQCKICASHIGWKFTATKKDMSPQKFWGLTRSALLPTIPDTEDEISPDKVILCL
T1 sequence (Q16531 whole entry partner): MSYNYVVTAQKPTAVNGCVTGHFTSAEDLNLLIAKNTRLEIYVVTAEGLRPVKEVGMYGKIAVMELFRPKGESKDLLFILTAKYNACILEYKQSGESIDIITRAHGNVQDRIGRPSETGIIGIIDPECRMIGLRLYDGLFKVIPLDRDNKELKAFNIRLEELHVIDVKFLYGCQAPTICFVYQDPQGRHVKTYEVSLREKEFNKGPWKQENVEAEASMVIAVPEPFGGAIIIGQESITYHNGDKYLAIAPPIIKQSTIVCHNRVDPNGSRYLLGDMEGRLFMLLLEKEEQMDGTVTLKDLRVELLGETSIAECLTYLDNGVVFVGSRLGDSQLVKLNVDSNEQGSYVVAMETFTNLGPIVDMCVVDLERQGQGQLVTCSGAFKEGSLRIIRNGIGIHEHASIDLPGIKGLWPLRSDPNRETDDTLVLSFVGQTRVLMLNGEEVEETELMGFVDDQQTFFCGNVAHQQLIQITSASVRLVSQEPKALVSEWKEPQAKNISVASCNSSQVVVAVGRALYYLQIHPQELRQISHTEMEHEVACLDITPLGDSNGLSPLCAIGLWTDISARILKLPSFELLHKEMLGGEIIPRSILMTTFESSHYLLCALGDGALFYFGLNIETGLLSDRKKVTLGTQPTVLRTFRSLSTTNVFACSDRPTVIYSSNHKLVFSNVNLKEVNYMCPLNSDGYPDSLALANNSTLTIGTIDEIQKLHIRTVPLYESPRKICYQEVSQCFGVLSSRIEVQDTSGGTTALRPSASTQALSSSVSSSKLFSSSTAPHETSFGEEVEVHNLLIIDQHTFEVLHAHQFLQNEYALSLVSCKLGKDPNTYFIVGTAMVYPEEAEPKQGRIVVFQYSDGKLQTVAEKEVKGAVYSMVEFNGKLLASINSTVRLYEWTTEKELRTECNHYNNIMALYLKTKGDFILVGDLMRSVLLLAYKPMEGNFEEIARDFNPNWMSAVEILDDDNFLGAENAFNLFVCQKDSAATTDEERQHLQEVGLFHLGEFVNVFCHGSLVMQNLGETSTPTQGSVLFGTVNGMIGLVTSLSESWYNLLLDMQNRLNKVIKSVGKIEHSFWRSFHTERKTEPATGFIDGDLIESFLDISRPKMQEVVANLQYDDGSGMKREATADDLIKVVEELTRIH

As usually defined, the EC50 is the concentration giving half of the maximal effect. Turning to `C[C@H]1CN(Cc2ccc3onc(N4CCC(=O)NC4=O)c3c2)CCN1C` [Example 29, (S)-1-(5-((3,4-dimethylpiperazin-1-yl)methyl)benzo[d]isoxazol-3-yl)dihydropyrimidine-2,4(1H,3H)-dione], at WIZ, the Dmax at 25 µM is 89%, the remaining activity at 25 µM is 11% and the DC50 was 6.4 nM. Also, in the experiment on Fetal Hemoglobin (HbF), the EC50 stood at 45 nM and the “HbF Amax” value came out at 80%.
On the same counts, the results for `C[C@@H]1CN(C)CCN1Cc1ccc2onc(N3CCC(=O)NC3=O)c2c1` [Example 65, (R)-1-(5-((2,4-dimethylpiperazin-1-yl)methyl)benzo[d]isoxazol-3-yl)dihydropyrimidine-2,4(1H,3H)-dione] are 84%, 16%, 89 nM, 172 nM and 76%.
`O=C1CCN(c2noc3ccc(CN4CCN5[C@@H](CCS5(=O)=O)C4)cc23)C(=O)N1` [Example 112, (S)-1-(5-((1,1-dioxidohexahydro-5H-isothiazolo[2,3-a]pyrazin-5-yl)methyl)benzo[d]isoxazol-3-yl)dihydropyrimidine-2,4(1H,3H)-dione]: on WIZ, the Dmax at 25 µM amounted to 87%, the remaining activity at 25 µM worked out at 13% and the DC50 was 45 nM.
The matching figures for `CC(C)CN1CCN(Cc2ccc3onc(N4CCC(=O)NC4=O)c3c2)CC1=O` [Example 113, 1-(5-((4-isobutyl-3-oxopiperazin-1-yl)methyl)benzo[d]isoxazol-3-yl)dihydropyrimidine-2,4(1H,3H)-dione]: 66%, 34% and 256 nM.
The matching figures for `COC[C@H]1CN(Cc2ccc3onc(N4CCC(=O)NC4=O)c3c2)CCN1CC(C)C` [Example 114, (R)-1-(5-((4-isobutyl-3-(methoxymethyl)piperazin-1-yl)methyl)benzo[d]isoxazol-3-yl)dihydropyrimidine-2,4(1H,3H)-dione]: 85%, 15% and 115 nM.
On the same counts, the results for `O=C1CCN(c2noc3ccc(CN4CCN(CC5CCOCC5)[C@@H](C(F)F)C4)cc23)C(=O)N1` [Example 115, (R)-1-(5-((3-(difluoromethyl)-4-((tetrahydro-2H-pyran-4-yl)methyl)piperazin-1-yl)methyl)benzo[d]isoxazol-3-yl)dihydropyrimidine-2,4(1H,3H)-dione] are 78%, 22% and 53 nM.
As for `O=C1CCN(c2noc3ccc(CN4CCN5C(=O)COC[C@H]5C4)cc23)C(=O)N1` [Example 116, (R)-1-(5-((4-oxohexahydropyrazino[2,1-c][1,4]oxazin-8(1H)-yl)methyl)benzo[d]isoxazol-3-yl)dihydropyrimidine-2,4(1H,3H)-dione], at WIZ, the Dmax at 25 µM amounted to 78%, the remaining activity at 25 µM was found to be 22% and the DC50 amounted to 193 nM.
The matching figures for `COC[C@H]1CN(Cc2ccc3onc(N4CCC(=O)NC4=O)c3c2)CCN1C` [Example 117, (R)-1-(5-((3-(methoxymethyl)-4-methylpiperazin-1-yl)methyl)benzo[d]isoxazol-3-yl)dihydropyrimidine-2,4(1H,3H)-dione]: 87%, 13% and 578 nM.
With `CN1CCN(Cc2ccc3onc(N4CCC(=O)NC4=O)c3c2)C[C@@H]1C(F)F` [Example 118, (R)-1-(5-((3-(difluoromethyl)-4-methylpiperazin-1-yl)methyl)benzo[d]isoxazol-3-yl)dihydropyrimidine-2,4(1H,3H)-dione], at WIZ, the Dmax at 25 µM was 80%, the remaining activity at 25 µM was determined as 20% and the DC50 worked out at 208 nM.
The matching figures for `O=C1CCN(c2noc3ccc(CN4CCN(C5CC5)CC4)cc23)C(=O)N1` [Example 119, 1-(5-((4-cyclopropylpiperazin-1-yl)methyl)benzo[d]isoxazol-3-yl)dihydropyrimidine-2,4(1H,3H)-dione]: 86%, 14% and 189 nM.
The matching figures for `C[C@@H]1CN(C2CC2)CCN1Cc1ccc2onc(N3CCC(=O)NC3=O)c2c1` [Example 120, (R)-1-(5-((4-cyclopropyl-2-methylpiperazin-1-yl)methyl)benzo[d]isoxazol-3-yl)dihydropyrimidine-2,4(1H,3H)-dione]: 83%, 17% and 538 nM.
On the same counts, the results for `CC(c1ccc2onc(N3CCC(=O)NC3=O)c2c1)N1CCN(C)CC1` (stereo not shown) [Example 127, 1-(5-(1-(4-methylpiperazin-1-yl)ethyl)benzo[d]isoxazol-3-yl)dihydropyrimidine-2,4(1H,3H)-dione] are 91%, 9% and 149 nM.
Turning to `Cc1c(CN2CCN(CC(C)C)[C@@H](C)C2)ccc2onc(N3CCC(=O)NC3=O)c12` [Example 128, (S)-1-(5-((4-isobutyl-3-methylpiperazin-1-yl)methyl)-4-methylbenzo[d]isoxazol-3-yl)dihydropyrimidine-2,4(1H,3H)-dione], at WIZ, the Dmax at 25 µM amounted to 88%, the remaining activity at 25 µM amounted to 12% and the DC50 stood at 7 nM.
On the same counts, the results for `Cc1c(CN2CCN(C)[C@@H](C)C2)ccc2onc(N3CCC(=O)NC3=O)c12` [Example 129, (S)-1-(5-((3,4-dimethylpiperazin-1-yl)methyl)-4-methylbenzo[d]isoxazol-3-yl)dihydropyrimidine-2,4(1H,3H)-dione] are 86%, 14% and 9 nM.
The matching figures for `Cc1c(CN2CCN(CC3CC3)[C@@H](C)C2)ccc2onc(N3CCC(=O)NC3=O)c12` [Example 130, (S)-1-(5-((4-(cyclopropylmethyl)-3-methylpiperazin-1-yl)methyl)-4-methylbenzo[d]isoxazol-3-yl)dihydropyrimidine-2,4(1H,3H)-dione]: 86%, 14% and 6 nM.
